Laboratory results published in ChEMBL document CHEMBL1201862, “PubChem BioAssay data set” (2004).
Several values for one entry are separate records, joined by “and”; a condition that tells them apart may be missing. Identical values can stand only once.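 Exposure lasted 48 hours, with cells grown in 96-well plates and compounds tested at five concentrations. GI50 is the concentration that inhibits growth by half.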 Activity calls are given as the source filed them. Cut-off read from the data, not from the text of the source: active = GI50 up to about 1.1 µM and inactive = higher.

Columns and labels:
Experiment in all cases: growth of human tumour cells (NCI), 48 h
[1] = system: SK-MEL-2
[2] = system: SK-OV-3
[3] = system: NCI-H226
[4] = system: NCI/ADR-RES
[5] = system: DMS-114
[6] = system: T47D
[7] = system: NCI-H460
[8] = system: BT-549
[9] = system: OVCAR-3
[10] = system: A498
[11] = system: HCT-116
[12] = system: SK-MEL-5
[13] = system: EKVX
[14] = system: DU-145
[15] = system: SK-MEL-28
[16] = system: SNB-75
[17] = system: UACC-257
[18] = system: TK-10
[19] = system: SW-620

Measured: GI50

Cc1c(Cl)cccc1NC(=O)CC1Sc2ccccc2NC1=O (centres undefined)
inactive: [1] 16.4 µM and 17.9 µM | [2] 16.4 µM and 19.3 µM | [3] 19.1 µM and 17.9 µM | [4] 17 µM | [5] 27.3 µM and 18.5 µM | [6] 25.5 µM | [7] 22.4 µM and 23.2 µM | [8] 27 µM | [9] 15.3 µM and 17.9 µM | [10] 18.3 µM and 16.5 µM | [11] 13.9 µM and 15.8 µM | [12] 14.2 µM and 10.5 µM | [13] 46.9 µM and 49.8 µM | [14] 53.7 µM

Nc1ccccc1.O=P(O)(OP(=O)(O)c1ccccc1)c1ccccc1
inactive: [1] > 100 µM | [15] > 100 µM | [2] > 100 µM | [3] > 100 µM | [16] > 100 µM | [17] > 100 µM | [18] > 100 µM | [4] > 100 µM | [6] > 100 µM | [7] > 100 µM | [19] > 100 µM | [8] > 100 µM | [9] > 100 µM | [10] > 100 µM | [11] > 100 µM | [12] > 100 µM | [13] > 100 µM | [14] > 100 µM

CC(=O)OCCN1c2ccccc2Sc2cnccc21
inactive: [1] > 10 µM | [15] > 10 µM | [2] > 10 µM | [3] > 10 µM | [16] 9.38 µM | [17] > 10 µM | [18] > 10 µM | [4] > 10 µM | [6] > 10 µM | [7] > 10 µM | [19] > 10 µM | [8] > 10 µM | [9] > 10 µM | [10] > 10 µM | [11] > 10 µM | [12] > 10 µM | [13] 8.55 µM | [14] > 10 µM

O=[N+]([O-])c1c(/C=N/Nc2ccccc2)oc(-c2ccc3c(c2)OCO3)c1-c1ccc2c(c1)OCO2
inactive: [1] 2.49 µM | [15] 23.4 µM | [2] 30.5 µM | [3] > 100 µM | [16] 23.4 µM | [17] 30.3 µM | [18] 19 µM | [5] 5.02 µM | [19] 11.1 µM | [9] 5.77 µM | [11] 8.47 µM | [13] 12.4 µM

CC1=NN(c2nc(N)nc(CBr)n2)C(C)(C)C1
inactive: [1] 12.9 µM | [15] 13.7 µM | [2] 17.3 µM | [3] 2.61 µM | [16] 9.75 µM | [17] 11.9 µM | [18] 4.25 µM | [4] 17.7 µM | [6] 5.97 µM | [7] 7.64 µM | [19] 4.19 µM | [8] 11.8 µM | [9] 3.42 µM | [10] 12.9 µM | [11] 6.27 µM | [12] 11.3 µM | [13] 3.66 µM | [14] 3.3 µM

CC(C)(CN)SCc1ccccc1
inactive: [1] > 100 µM | [15] > 100 µM | [2] > 100 µM | [3] > 100 µM | [16] > 100 µM | [17] 28.7 µM | [18] > 100 µM | [4] > 100 µM | [6] > 100 µM | [7] > 100 µM | [19] > 100 µM | [8] > 100 µM | [9] > 100 µM | [10] > 100 µM | [11] > 100 µM | [12] > 100 µM | [13] > 100 µM | [14] > 100 µM

COc1cccc(C2CC(C)(N3CCCC3)Oc3cc4c(cc32)OCO4)c1O (centres undefined)
inactive: [1] 16.5 µM | [15] 22.5 µM | [2] 29.6 µM | [3] 19.1 µM | [16] 15.5 µM | [17] 35.4 µM | [18] 37.3 µM | [4] 20.8 µM | [6] 30.8 µM | [7] 28.2 µM | [19] 25.8 µM | [8] 16.9 µM | [9] 20 µM | [10] 28.3 µM | [11] 13.2 µM | [12] 12.4 µM | [13] 63.2 µM | [14] 32 µM

CC[C@@H]1C[C@@H](O)[C@@H]2[C@H](O)[C@H](O)CN2C1
inactive: [1] > 100 µM | [15] > 100 µM | [2] > 100 µM | [3] > 100 µM | [16] 22.3 µM | [17] > 100 µM | [18] > 100 µM | [4] > 100 µM | [6] > 100 µM | [7] > 100 µM | [19] > 100 µM | [8] > 100 µM | [9] > 100 µM | [10] > 100 µM | [11] > 100 µM | [12] > 100 µM | [13] > 100 µM | [14] > 100 µM
